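Method: 48-hour compound exposure of cells in 96-well plates, five concentrations, linear interpolation of endpoints. GI50 is the concentration that inhibits growth by half.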 Active and inactive are the calls of the source. No stated cut-off is given here; in the data, active = GI50 up to about 1.1 µM and inactive = higher.

Test systems include SK-MEL-28; OVCAR-3; Malme-3M; SK-MEL-5; SF-539; HOP-62; SF-295; IGROV-1; Hs-578T; RXF 393; SW-620; SNB-75; EKVX; UO-31; RPMI-8226; NCI-H23; T47D; NCI-H522; HCT-15; HOP-92.
What all share (assay): NCI tumour cell line growth inhibition, 48 h

For `Cn1c(=O)c2nc(CS(=O)(=O)Cc3nc4c(=O)n(C)c(=O)n(C)c4[nH]3)[nH]c2n(C)c1=O`, the GI50 in the assay with SK-MEL-28, in the assay on OVCAR-3, in the assay on Malme-3M, in the assay on SK-MEL-5, in the assay on SF-539 and in the assay with HOP-62 was > 100 µM (inactive) throughout. The GI50 in the assay with SF-295, in the assay with IGROV-1, with Hs-578T, with RXF 393, in the assay with SW-620 and with SNB-75 was > 100 µM (inactive) each time. For the same molecule, the GI50 in the assay with EKVX, in the assay on UO-31, in the assay with RPMI-8226, in the assay on NCI-H23, in the assay with T47D and in the assay on NCI-H522 was > 100 µM (inactive) each time. This molecule displayed a GI50 in the assay with HCT-15 above 100 µM.

On to `CC1(C)C2CCC1(C)C(NC(=O)CCN1CCOCC1)C2` (stereo not given), for which the GI50 with SK-MEL-28, in the assay on OVCAR-3, in the assay on Malme-3M, with SK-MEL-5, with SF-539 and with HOP-62 was > 100 µM (inactive) each time. Also, the GI50 with SF-295, in the assay with IGROV-1, in the assay with Hs-578T, with RXF 393, in the assay on HOP-92 and in the assay with SW-620 was > 100 µM (inactive) throughout. Besides, the GI50 in the assay on SNB-75, with EKVX, with UO-31, in the assay on NCI-H23, in the assay with T47D and in the assay on NCI-H522 was > 100 µM (inactive) in each case.

As for `COc1ccc(CC(=O)N2CCC3(C)CC(=O)CC=C23)cc1OC` (stereo not given), the GI50 in the assay with SK-MEL-28 is > 100 µM (inactive); in the assay with OVCAR-3 it was > 100 µM (inactive); in the assay with Malme-3M, > 100 µM (inactive); in the assay on SK-MEL-5 it was > 100 µM (inactive); with SF-539 it was > 100 µM (inactive); with HOP-62, 93.8 µM (inactive). The GI50 in the assay with SF-295, in the assay with IGROV-1, with Hs-578T, in the assay on RXF 393, with HOP-92 and in the assay with SW-620 was > 100 µM (inactive) each time. The GI50 in the assay with EKVX was > 100 µM (inactive); in the assay with UO-31, > 100 µM (inactive); with RPMI-8226, > 100 µM (inactive); in the assay on NCI-H23 it was > 100 µM (inactive); in the assay with T47D, > 100 µM (inactive); in the assay with NCI-H522, 33.6 µM (inactive). In addition, the GI50 in the assay on HCT-15 is above 100 µM.

Regarding `CCOc1cc2c(cc1O)CC[C@@H]1[C@@H]2CC[C@]2(C)C(OS(=O)OC3CC[C@@H]4[C@H]5CCc6cc(O)c(OCC)cc6[C@@H]5CC[C@@]34C)CC[C@@H]12` (stereo not given in full), the GI50 in the assay with SK-MEL-28 was 0.6 µM (active); with OVCAR-3, 0.313 µM (active); in the assay with Malme-3M it was 0.168 µM (active); in the assay on SK-MEL-5 it was 0.34 µM (active); in the assay on SF-539, 0.48 µM (active); with HOP-62 it was 0.887 µM (active). Moreover, the GI50 in the assay with SF-295 was 0.982 µM (active); in the assay on IGROV-1, 4.52 µM (inactive); in the assay on Hs-578T, 3.25 µM (inactive); in the assay on RXF 393 it was 1.29 µM (inactive); in the assay with HOP-92 it was 0.363 µM (active); in the assay with SW-620, 0.355 µM (active). Moreover, the GI50 in the assay with SNB-75 was 0.51 µM (active); in the assay with EKVX, 3.21 µM (inactive); with UO-31 it was 5.48 µM (inactive); in the assay on RPMI-8226 it was 1.63 µM (inactive); with NCI-H23, 1.84 µM (inactive); in the assay with T47D it was 5.66 µM (inactive). The molecule also gave a GI50 in the assay with HCT-15 of 0.507 µM.

For `Cc1cc2c(cc1Cl)SC(NNC(=O)c1ccncc1)=NS2(=O)=O`, the GI50 with SK-MEL-28, with OVCAR-3, in the assay with Malme-3M, with SK-MEL-5, with SF-539 and with HOP-62 was > 10 µM (inactive) each time. The GI50 with SF-295, in the assay with IGROV-1, in the assay on Hs-578T, in the assay with RXF 393, in the assay on SW-620 and in the assay with SNB-75 was > 10 µM (inactive) each time. The GI50 was > 10 µM (inactive) in the assay on EKVX; > 10 µM (inactive) in the assay on RPMI-8226; > 10 µM (inactive) in the assay on NCI-H23; > 10 µM (inactive) in the assay with T47D; > 10 µM (inactive) with NCI-H522; above 10 µM in the assay on HCT-15.

As to `O=c1oc2cccnc2n1CCCCN1CCN(c2ccccc2)CC1`, the GI50 in the assay on SK-MEL-28 is > 100 µM (inactive); with OVCAR-3, > 100 µM (inactive); in the assay with Malme-3M, 89.1 µM (inactive); with SK-MEL-5 it was > 100 µM (inactive); in the assay with SF-539, > 100 µM (inactive); in the assay on HOP-62, > 100 µM (inactive). The GI50 in the assay with SF-295, with IGROV-1, with Hs-578T, in the assay with RXF 393, with HOP-92 and with SW-620 was > 100 µM (inactive) throughout. The GI50 in the assay on EKVX, with UO-31, in the assay on RPMI-8226, in the assay with NCI-H23, with T47D and in the assay on NCI-H522 was > 100 µM (inactive) each time. For the same molecule, the GI50 in the assay on HCT-15 is above 100 µM.

As for `CNC(=O)c1cc2nc3ccccc3c(=O)n2c2ccccc12`, the GI50 with SK-MEL-28, with OVCAR-3, with Malme-3M, with SK-MEL-5, in the assay on SF-539 and in the assay with HOP-62 was > 10 µM (inactive) in each case. Besides, the GI50 with SF-295, in the assay on IGROV-1, in the assay with Hs-578T, in the assay with RXF 393, with HOP-92 and in the assay on SW-620 was > 10 µM (inactive) in each case. Also, the GI50 in the assay on EKVX, in the assay on UO-31, in the assay with RPMI-8226, in the assay on NCI-H23, with T47D and in the assay on NCI-H522 was > 10 µM (inactive) throughout. The molecule further gave a GI50 in the assay with HCT-15 above 10 µM.

With `COc1cc(/C=C2\C[C@H]3[C@@H]4CC=C5C[C@@H](N6CCCC6)CC[C@]5(C)[C@H]4CC[C@]3(C)[C@H]2OC(C)=O)cc(OC)c1OC`, the GI50 in the assay with SK-MEL-28 was 19 µM (inactive); in the assay with OVCAR-3, 15.5 µM (inactive); in the assay on Malme-3M it was 21.5 µM (inactive); with SK-MEL-5 it was 15.1 µM (inactive); with HOP-62, 15.6 µM (inactive); in the assay on SF-295, 12.8 µM (inactive). In addition, the GI50 was 16.3 µM (inactive) in the assay on IGROV-1; 17.8 µM (inactive) in the assay with Hs-578T; 11.5 µM (inactive) with RXF 393; 10.3 µM (inactive) with HOP-92; 14.8 µM (inactive) in the assay with SW-620; 15.4 µM (inactive) with SNB-75. Besides, the GI50 is 14.3 µM (inactive) with EKVX; 15 µM (inactive) in the assay on UO-31; 5.27 µM (inactive) in the assay with RPMI-8226; 15.2 µM (inactive) with NCI-H23; 20.3 µM (inactive) with T47D; 16.7 µM (inactive) in the assay on NCI-H522. The molecule further gave a GI50 in the assay with HCT-15 of 12.6 µM.

As to `c1csc(-c2ccc(-c3ccc(-c4cccs4)s3)s2)c1`, the GI50 with SK-MEL-28, in the assay on OVCAR-3, in the assay on Malme-3M, in the assay with SK-MEL-5, in the assay with SF-539 and in the assay with HOP-62 was > 100 µM (inactive) in each case. The GI50 in the assay on SF-295, in the assay on IGROV-1, with Hs-578T, in the assay with RXF 393, in the assay on SW-620 and in the assay on SNB-75 was > 100 µM (inactive) throughout. In addition, the GI50 in the assay with EKVX, in the assay with UO-31, in the assay with RPMI-8226, with NCI-H23, in the assay with T47D and in the assay with NCI-H522 was > 100 µM (inactive) throughout. The molecule also returned a GI50 in the assay with HCT-15 above 100 µM.

With `CN/C(=N\n1cnnc1)OC`, the GI50 in the assay with SK-MEL-28, in the assay with OVCAR-3, in the assay on Malme-3M, in the assay on SK-MEL-5, with HOP-62 and with SF-295 was > 100 µM (inactive) in each case. In addition, the GI50 with IGROV-1, with Hs-578T, in the assay with RXF 393, with HOP-92, in the assay on SW-620 and in the assay with EKVX was > 100 µM (inactive) throughout. In addition, the GI50 in the assay with UO-31 is > 100 µM (inactive); in the assay with RPMI-8226, > 100 µM (inactive); in the assay with NCI-H23 it was > 100 µM (inactive); in the assay on T47D, > 100 µM (inactive); in the assay on NCI-H522 it was > 100 µM (inactive); with HCT-15 it was above 100 µM.

Consider `Cc1ccc(Nc2nc(O)c3[nH]cnc3n2)cc1CO`, for which the GI50 in the assay on SK-MEL-28 was 17.8 µM (inactive); in the assay on OVCAR-3, 15.7 µM (inactive); in the assay with Malme-3M, 16.5 µM (inactive); with SK-MEL-5, 16.5 µM (inactive); in the assay on SF-295, 15.9 µM (inactive); in the assay with IGROV-1, 14.9 µM (inactive). Further, the GI50 in the assay with Hs-578T was 21.2 µM (inactive); in the assay on RXF 393, 16.3 µM (inactive); in the assay with HOP-92, 8.79 µM (inactive); in the assay on SW-620, 17.5 µM (inactive); in the assay on SNB-75, 14.7 µM (inactive); in the assay with EKVX, 14.8 µM (inactive). Further, the GI50 with UO-31 was 16 µM (inactive); with RPMI-8226, 10.7 µM (inactive); in the assay on NCI-H23 it was 17.7 µM (inactive); with T47D, 14 µM (inactive); with NCI-H522 it was 11.6 µM (inactive); in the assay on HCT-15, 15.6 µM.

Values taken from ChEMBL document CHEMBL1201862, “PubChem BioAssay data set” (2004).
